Laboratory results: ChEMBL document CHEMBL1125225, “Delineating the pharmacophoric elements of huperzine A: importance of the unsaturated three-carbon bridge to its AChE inhibitory activity” (J Med Chem, 1991)

Molecular target: T1, Acetylcholinesterase (Rattus norvegicus, UniProt P37136)
T1 sequence (P37136 whole entry): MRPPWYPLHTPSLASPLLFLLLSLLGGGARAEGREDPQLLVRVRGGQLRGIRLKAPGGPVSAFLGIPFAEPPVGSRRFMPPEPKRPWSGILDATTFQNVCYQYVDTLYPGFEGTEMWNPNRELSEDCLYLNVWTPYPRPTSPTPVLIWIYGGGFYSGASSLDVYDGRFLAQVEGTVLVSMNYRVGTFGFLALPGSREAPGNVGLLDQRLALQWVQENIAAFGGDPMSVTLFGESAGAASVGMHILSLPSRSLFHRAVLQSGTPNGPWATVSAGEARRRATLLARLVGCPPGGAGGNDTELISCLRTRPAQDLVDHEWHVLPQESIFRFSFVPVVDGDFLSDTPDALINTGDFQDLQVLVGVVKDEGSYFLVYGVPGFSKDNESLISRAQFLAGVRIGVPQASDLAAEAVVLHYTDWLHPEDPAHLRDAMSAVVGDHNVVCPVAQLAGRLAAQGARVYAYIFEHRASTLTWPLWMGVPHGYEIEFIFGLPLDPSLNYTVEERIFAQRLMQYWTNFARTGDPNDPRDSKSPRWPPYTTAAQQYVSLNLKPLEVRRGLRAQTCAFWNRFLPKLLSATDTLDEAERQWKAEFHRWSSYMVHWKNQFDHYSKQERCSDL
Test: Compound was tested for its ability to inhibit the action of acetylcholinesterase isolated from rat brain cortex

Compared with `C/C=C1\CCc2[nH]c(=O)ccc2[C@]1(C)N`, `C/C=C1\C2CCC[C@]1(N)c1ccc(O)nc1C2` is 34-fold lower in IC50: 338 µM for the first, 9.82 µM for the second.

`CN(C)Cc1ccc(=O)[nH]c1` and `NCc1ccc(O)nc1` cannot be ordered by IC50: greater than 900 µM for the first, greater than 900 µM for the second.
